The record followed here is article PMC11206519, “Multi-Endpoint Toxicological Assessment of Chrysin Loaded Oil-in-Water Emulsion System in Different Biological Models” (Nanomaterials, 2024).

Where only a bound is given, the exact number is not on record here.

One data set concerns RAW 264.7. Briefly: MTT cytotoxicity assay. Type of data set: cell-based, murine. The conditions noted are these: Mus musculus, RAW264.7, 48 h. As to the method: (§1) RAW 264.7 (murine macrophage-like cell), 3T3-L1 adipocyte (murine adipocyte), HEK293 (human embryonic kidney cell), and LX-2 (human hepatic stellate cell) were obtained from American Type Culture Collection (ATCC, Manassas, VA, USA). RAW 264.7 macrophages were cultured as a suspension culture in an ultra-low attachment culture dish, whereas the others were cultured as adherent cells in a cell culture flask. The cells were grown in Dulbecco’s Modified Eagle Medium (DMEM) with L-glutamine, supplemented with 10% fetal bovine serum (FBS) (RAW 264.7, HEK293, and LX-2) or 10% fetal calf serum (FCS) (3T3-L1) and 1% penicillin under 5% CO2, at 37 °C. […] Blank-ES was used as a vehicle control. The amount of blank-ES was equal to chrysin-ES amount that was used for the treatment. The cytotoxicity of chrysin, chrysin-ES, and blank-ES in each cell was determined using an MTT assay. […] Then, the solution was gently removed, and the formazan crystal was dissolved with dimethyl sulfoxide (DMSO). The soluble formazan was measured using a microplate reader (Bio-TEK Synergy Hybrid Reader H4) at 540 nm. The cell viability is directly related to the absorbance of formazan. The percentage of cell viability was calculated using the following equation. Cell viability (%) = (Absorbance (sample))/(Absorbance (control)) × 100

A further data set concerns 3T3-L1. Briefly: MTT cytotoxicity assay. The format is cell-based. The conditions noted are these: Mus musculus, 48 h. As to the method:
as §1
Background: Tetrazolium dyes change colour on reduction, which living cells bring about.

The next data set concerns HEK-293. Briefly: MTT cytotoxicity assay. Type of data set: cell-based. The conditions noted are these: Homo sapiens, HEK293, 48 h. As to the method: as §1
Another data set has as its system LX-2. In words: MTT cytotoxicity assay. The format is cell-based. The conditions noted are these: Homo sapiens, LX-2, 48 h. As to the method:
as §1

The next data set relates to S. typhimurium TA 100. Briefly: Ames test, mutagenicity. Type of data set: cell-based, Salmonella Typhimurium. As to the method: (§2) The S. typhimurium strains TA 98 and TA 100 were used to detect frameshift and base-pair mutations, respectively. […] Then, they were poured onto minimal glucose agar containing a trace amount of histidine, following incubation at 37 °C for 48 h. Then, the revertant colonies were counted and compared with the negative control. If the number of revertant colonies in the tested sample treatment is at least twice that of the negative control (spontaneous revertant colonies), it is considered a mutagen.
(In general: The Ames test uses bacterial strains that need an amino acid and regain growth without it when mutated back.)

The next data set relates to S. typhimurium TA 98. Briefly: Ames test, mutagenicity. Type of data set: cell-based, Salmonella Typhimurium. As to the method: as §2
Where [1] appears, read: decreases cell viability by 20%.
[2] abbreviates: decreases cell viability by 50%.

For `O=c1cc(-c2ccccc2)oc2cc(O)cc(O)c12` [Chrysin, 5,7-dihydroxyflavone], the concentration for an effect of 20% (IC20) with RAW 264.7 (setting [1]) is approximately 43 µM; in the data set on 3T3-L1 (setting [1]), more than 90 µM; in the data set on HEK-293 (setting [1]) it was approximately 53 µM; with LX-2 (setting [1]), approximately 52 µM. Besides, the IC50 in the data set with RAW 264.7 (setting [2]) was approximately 69 µM; with 3T3-L1 (setting [2]), more than 90 µM; in the data set with HEK-293 (setting [2]), more than 90 µM; in the data set on LX-2 (setting [2]), more than 90 µM. Also, the “Number of Revertant Colonies” value in the data set with S. typhimurium TA 100 (+S9, 5.7 µM/plate) was 136 ± 12; in the data set with S. typhimurium TA 100 (+S9, 11.4 µM/plate) it was 131 ± 7; with S. typhimurium TA 100 (+S9, 22.8 µM/plate), 136 ± 8; with S. typhimurium TA 100 (−S9, 5.7 µM/plate), 120 ± 6; in the data set with S. typhimurium TA 100 (−S9, 11.4 µM/plate) it was 115 ± 7; in the data set on S. typhimurium TA 100 (−S9, 22.8 µM/plate), 117 ± 4. In addition, the “Number of Revertant Colonies” value in the data set on S. typhimurium TA 98 (+S9, 5.7 µM/plate) was found to be 27 ± 7; in the data set with S. typhimurium TA 98 (+S9, 11.4 µM/plate) it was 26 ± 8; in the data set on S. typhimurium TA 98 (+S9, 22.8 µM/plate), 27 ± 8; with S. typhimurium TA 98 (−S9, 5.7 µM/plate) it was 22 ± 6; with S. typhimurium TA 98 (−S9, 11.4 µM/plate), 23 ± 5; with S. typhimurium TA 98 (−S9, 22.8 µM/plate), 23 ± 7. Also, the “mutagenicity in the Ames test” value with S. typhimurium TA 98 (TA98 and TA100, presence and absence of metabolic activation) was “did not induce mutations”.

As a reminder, the IC20 is the point of the concentration-response curve where the effect stands at 20%. A word on the IC50: it is the point on the concentration scale where inhibition reaches its midpoint.
